# Experiment: in vitro
# Details: human, hela cells, % viability
row,Structure (SMILES),"viability at 28.5 h, 10 µM [%]"
1,Cc1noc(C)c1C(=O)N1CCC[C@@H](C(=O)c2ccccc2F)C1 [CBK282249],90.5
2,Nc1ccc2c(-c3cc(F)cc(F)c3)ccnc2n1 [CBK067638],93.4
3,CC(=O)Nc1c(-c2ccc(C)cc2)c(=O)c2ccccc2n1C [CBK287775],88
4,O=C(O)COCC(=O)NC12CC3CC(CC(C3)C1)C2 [CBK287065],97.9
5,CCOC(=O)C1CCN(S(=O)(=O)c2ccccc2)CC1 [CBK051091],107
6,C=CCc1cccc(Cl)c1OCCN1CCNCC1 [CBK266071G],105
7,Cn1c([C@H]2CCN(C(=O)c3cnccn3)C2)nc2ccccc21 [CBK289416],110
8,CC(=O)Nc1ccc(S(=O)(=O)NC2(C(F)(F)F)C(=O)Nc3c2c(=O)[nH]c(=O)n3CCc2ccccc2)cc1 (stereo not drawn) [CBK267937],104
9,CS(=O)(=O)N1CC2(CCN(Cc3cccc4cccnc34)CC2)c2ccccc21 [CBK136955],93.2
10,CN(C)CCCNC(=O)c1ccc(/C=N/O)nc1 [CBK288489],121
11,CC(C)NC(=O)[C@H]1O[C@H](CCN2CCN(c3ccccn3)CC2)CC[C@@H]1O [CBK288722],90.7
12,O=C(NCc1nc(-c2ccccc2)no1)C(c1cccs1)c1cccs1 [CBK286340],109
13,O=C(O)C1C2C=CC(O2)C1C(=O)NCCCc1ccccc1 (stereo not drawn) [CBK286982],93.3
14,c1coc(-c2nc3cnccn3c2NC2CCCC2)c1 [CBK283678],90.6
15,O=C1OCC(O)=C1C(c1ccccc1)C1CC1 (stereo not drawn) [CBK010731],91
16,O=c1cc(-c2ccccc2)nc(SCc2nc(-c3cccs3)no2)[nH]1 [CBK268416],107
17,CSCc1nnc(SCc2ccccc2Oc2ccccc2)o1 [CBK296743],99.2
18,Cc1cc(C)c(NC(=O)CSc2n[nH]c(=O)n2C2CC2)c(C)c1 [CBK295598],95
19,Oc1cc(C(F)(F)F)nc(N2CCCC2)n1 [CBK002389],105
20,CN(CC(=O)N1CCN(Cc2ccc3c(c2)OCO3)CC1)S(=O)(=O)c1ccc2ccccc2c1 [CBK267016],108
21,CC(C)C(C(=O)Nc1ccc(S(=O)(=O)Nc2nccs2)cc1)N1C(=O)c2ccccc2C1=O (stereo not drawn) [CBK265707],107

row,Structure (SMILES),"viability at 28.5 h, 10 µM [%]"
1,Cc1ccc(Nc2nc(N(C)C)nc3[nH]ncc23)cc1 [CBK288098],108
2,Cc1ccc(-c2ccc(CCC(=O)O)n2CC2CCCO2)cc1 (stereo not drawn) [CBK268636],101
3,CNC(=O)C1(Cc2ccccc2-c2cccs2)CCN(C(=O)c2cccc(OC)c2)CC1 [CBK285907],85.7
4,O=C(Cc1ccc(Cl)c(Cl)c1)N1CCN(c2ncccn2)CC1 [CBK144497],98
5,COc1cccc(CN2CCC3(C2)c2[nH]c4ccccc4c2CCN3Cc2cccc(OC)c2)c1 (stereo not drawn) [CBK059468],90.5
6,CC(=O)N1Cc2ccccc2OC2(CCCN(C(=O)C3CC3)C2)C1 (stereo not drawn) [CBK284991],97.1
7,Cc1ccc(S(=O)(=O)NCCSCc2ccc(Cl)c(Cl)c2)cc1[N+](=O)[O-] [CBK264675],99.9
8,O=C(CSc1nnc(-c2ccncc2)n1C1CCCCC1)Nc1ncc2c(n1)CC(c1ccccc1)CC2=O (stereo not drawn) [CBK266177],94.3
9,Cc1nc2ccccn2c1-c1csc(N)n1 [CBK288628B],91.7
10,O=C(C1=Cc2ccccc2OC1)N1CCn2cc(C(F)(F)F)nc2C1 [CBK283913],103
11,O=C(O)c1cccc(NS(=O)(=O)c2cccc(Cl)c2Cl)c1 [CBK155686],94.7
12,Cc1cn(C2CC(O)C(CNC(=O)C(F)(F)F)O2)c(=O)[nH]c1=O (stereo not drawn) [CBK201200],98
13,O=C(CSc1ccc2nnc(-c3ccccc3)n2n1)Nc1ccccc1 [CBK287513],82.7
14,Cc1nc2c(c(=O)[nH]1)CN(CC1CCCCC1)CC2 [CBK283947],86.7
15,O=[N+]([O-])c1ccc(-c2nc(-c3ccccc3)c(-c3ccc4oc5ccc(-c6[nH]c(-c7ccc([N+](=O)[O-])cc7)nc6-c6ccccc6)cc5c4c3)[nH]2)cc1 [CBK261434],93.9
16,Oc1c(Br)cc(Cl)cc1/C=N/Nc1nnc2c(n1)[nH]c1ccccc12 [CBK262041],114
17,O=C(O)C1(c2ccc(Br)cc2)CCCC1 [CBK287134],87.3
18,NCCN(C(=O)CCc1cc(C(F)(F)F)cc(C(F)(F)F)c1)c1ccc2c(c1)OCO2 [CBK000701T],105
19,COCCOC(=O)C1=C(C)NC2=C(C(=O)CC(c3ccc(OC)cc3)C2)C1c1ccc(F)cc1 (stereo not drawn) [CBK293921],88.9
20,COc1ccc(-n2ncc3c(N4CCN(C)CC4)ncnc32)cc1 [CBK265848],89
21,CC(Oc1ccc(C(C)(C)C)cc1)C(=O)Nc1nnc[nH]1 (stereo not drawn) [CBK267431],94.8

row,Structure (SMILES),"viability at 28.5 h, 10 µM [%]"
1,CCOC(=O)c1c(-c2ccc(OC)cc2)noc1C(O)c1ccccc1 (stereo not drawn) [CBK002296],90.6
2,O=C1Nc2c(cnn2-c2ccc(F)cc2)C2=NCCN12 [CBK284351],104
3,Cc1cccc(C)c1-c1cn2ccnc2c(N2CCN(c3ccccn3)CC2)n1 [CBK037389],89
4,O=c1n(Cc2cccnc2)c2cccnc2n1Cc1cccs1 [CBK283903],89.7
5,CCOC(=O)c1sc(Cl)nc1C(F)(F)F [CBK026746],103
6,O=C(NC(c1ccc(Cl)cc1)c1cnccn1)C1CCN(C(=O)N2CCOCC2)CC1 (stereo not drawn) [CBK059635],96.7
7,CN(c1ccc(C(=O)Nc2cccc(C(=O)O)c2)cc1)S(=O)(=O)c1ccccc1 [CBK265729],95.7
8,Cc1nn(Cc2nnc(-c3cccs3)o2)c(C)c1Br [CBK010809],87.7
9,COc1cccc(CNC2CC2)c1OCc1ccccc1 [CBK270009C],90.6
10,Cc1nnc(N/N=C\c2c(Cl)cccc2Cl)[nH]c1=O [CBK027921],110
11,Cc1c(CN2CCCC(c3cc4cccnc4[nH]3)C2)cnn1C (stereo not drawn) [CBK284683],99.7
12,Cc1sc2nc(SCC(=O)NCCO)nc(N)c2c1C [CBK264423],109
13,CO[C@]1(c2ccc(Cl)cc2)CC[C@H](NCCCC(=O)c2ccc(F)cc2)CC1 [CBK015959C],90.2
14,Cc1cnc2c(N3CCCC3)nc(Cl)cn12 [CBK092250],104
15,CCOC(=O)c1c(C)nc(-c2ccccc2)nc1NC(=O)C(C)C [CBK028118],90.1
16,c1coc(-c2cc3ncc4c(n3n2)CC2CCC4N2)c1 (stereo not drawn) [CBK284381],84.7
17,O=C(O)CCC(=O)Nc1ccc(Br)cc1C(=O)c1ccccc1 [CBK262610],114
18,Brc1ccc2c(c1)COC1(CN3CCC1CC3)O2 (stereo not drawn) [CBK105268],107
19,CC(C)NC(=O)[C@H]1CN2CCC1C[C@@H]2Cn1cc(C2(O)CCCCC2)nn1 (stereo partly drawn) [CBK288732],99.3
20,c1ccc2c(c1)/C(=N/OCCN1CCCC1)CC21CCCCC1 [CBK013322],110
21,CC(C)(C)c1cc(CCC(c2cc(C(C)(C)C)c(O)c(C(C)(C)C)c2)c2cc(C(C)(C)C)c(O)c(C(C)(C)C)c2)cc(C(C)(C)C)c1O [CBK261271],92.9

row,Structure (SMILES),"viability at 28.5 h, 10 µM [%]"
1,COC(=O)c1ccc(NC(=O)c2oc3ccc(Br)cc3c2C)cc1 [CBK296758],95.7
2,Cc1ccc(CSCc2nc3ccccc3[nH]2)cc1 [CBK265238],90
3,CCNC(=O)Nc1ncc(-c2ccsc2)c2cccnc12 [CBK070686],103
4,N#Cc1c(NC(=O)CSc2nc(-c3ccco3)cc(C(F)(F)F)n2)sc2c1CCCC2 [CBK266193],87
5,O=C(Cn1ccc(=O)[nH]c1=O)NCC1(Sc2ccccc2)CC1 [CBK306242],110
6,O=C(Nc1ccc(I)cc1C(=O)NCCN1CCOCC1)c1ccco1 [CBK266211],100
7,Cc1ccc(C(C)C)c(OCC(=O)N2CCN(Cc3nc4cc([N+](=O)[O-])ccc4n3C)CC2)c1 [CBK268519],106
8,Cc1ccc(S(=O)(=O)N2CCN(CCC(=O)O)CC2)cc1C [CBK269416],93.3
9,CCCOC(=O)c1c(NC(=O)C2C3C=CC(C3)C2C(=O)O)sc2c1CCC(C)C2 (stereo not drawn) [CBK265473],87.5
10,CC(C)OC(=O)[C@@H]1CCN(C(=O)CCC2NC(=O)NC2=O)[C@@H]1c1ccc(F)cc1 (stereo partly drawn) [CBK285520],103
11,CC(C)n1cnnc1CN1CCN(c2ccc(C#N)cc2)CC1 [CBK307714],106
12,CC(C)C(=O)Nc1cccc(C(=O)Nc2nnc(C(F)(F)F)s2)c1 [CBK073453],107
13,COc1cc(OC)c2c(c1)OC1(CCN(C(=O)c3cnc(C)cn3)CC1)CC2=O [CBK156503],105
14,COc1cc(OC)c(C(C)=O)c(OCCOc2nccnc2N2CCNCC2)c1 [CBK013497T],95.8
15,O=C(CSCCO)Nc1ccc(N2CCOCC2)cc1 [CBK269616],89.7
16,COc1ccc(CCCC(=O)Nc2cc(N3CCNCC3)ncn2)cc1OC [CBK107856],93.9
17,O=C(Cc1ccc(Cl)cc1)Nc1ccc(Oc2ccc3c(c2)C(=O)NC3=O)cc1 [CBK265869],87.8
18,CCOC(=O)c1cnc2nc(N3CCOCC3)nn2c1N [CBK007371],96.2
19,CC(NC(=O)Cc1cccc(F)c1)c1nnc2n1CCCCC2 (stereo not drawn) [CBK305975],85.8
20,COc1cc(F)ccc1-c1nc2ncccc2cc1NS(C)(=O)=O [CBK085692],89
21,CCc1cc2c(NC(CCSC)C(=O)O)nc(C)nc2s1 (stereo not drawn) [CBK266709],90.3

# Same assay, conditions: human, hela cells, % viability, bulk resorufin, single well
row,Structure (SMILES),"viability at 28.5 h, 10 µM [%]"
1,CCOC(=O)N1CCC2(CC1)OCc1ccc(-c3ccc(S(C)(=O)=O)nc3)cc1O2 [CBK174780],92
2,O=C1NC(=S)NC(=O)C1=Cc1cn(-c2ccccc2)nc1-c1ccc(-c2ccc([N+](=O)[O-])cc2)o1 [CBK263149],107
3,Cn1c(=O)c2[nH]c(NN=C3C(=O)NC(=O)NC3=O)nc2n(C)c1=O [CBK262891],103
